From patent US20230242496A1, “SOX11 INHIBITORS FOR TREATING MANTLE CELL LYMPHOMA” (Icahn School of Medicine At Mount Sinai, priority 2020, published 2023)

target: T1, (His)6-SOX11-DBD protein (Homo sapiens, UniProt P35716); assay: Surface Plasmon Resonance (SPR) assay; format: binding; conditions: immobilized recombinant (His)6-SOX11-DBD, 25° C., compounds 5-40 μM, mean of three experiments
T1 construct: Recombinant (His)6-SOX11-DBD protein was immobilized
T1 sequence (P35716 49-117 limits assumed): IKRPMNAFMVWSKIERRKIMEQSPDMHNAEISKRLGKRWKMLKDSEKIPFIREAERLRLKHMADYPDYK
Experimental: Surface Plasmon Resonance (SPR) Assay
Recombinant (His)6-SOX11-DBD protein was immobilized at a flow rate of 10 μl/min for 180 seconds to the right channel of a gold-coated SCR NiHC200M sensor chip (XanTec bioanalytics) placed in a Reichert 2SPR instrument (Reichert Technologies). The left channel, without immobilized protein, was used as a reference. […] Compounds flowed sequentially from the left to the right channel over the prepared sensor chip surface. 120 seconds association phase with each compound concentration was followed by 300 seconds dissociation phase with the assay buffer alone. The ka, kd, and KD values were determined from the sensograms for at least 3 concentrations of each compound by curve fitting the data using Reichert's TraceDrawer software. The mean KD value for each compound was calculated from three separate experiments.

| Kd | SMILES |
| --- | --- |
| 94.6 µM | Cc1cc(C(=O)Nc2ccc(S(=O)(=O)Nc3ccccc3)cc2)nc(NC2CCC(N)CC2)n1 (stereo not shown) |
| 89.6 µM | CC(=O)NCCNc1nc(C)cc(C(=O)Nc2ccc(S(=O)(=O)Nc3ccccc3)cc2)n1 |
| 80.7 µM | Cc1cc(Nc2cc(C(=O)Nc3ccc(S(=O)(=O)Nc4ccccc4)cc3)ccc2C)nc(N)n1 |
| 72.1 µM | Cc1ccc(C(=O)Nc2ccc(S(=O)(=O)Nc3ccccc3)cc2)cc1NC(=O)CCc1c[nH]cn1 |
| 16.5 µM | COc1cccc(NC(=O)Nc2cc(Nc3cccc(S(=O)(=O)N4CCCC4)c3)ncn2)c1 |
| 79.3 µM | NCCc1nc2ccc(C(=O)Nc3ccc(S(=O)(=O)Nc4ccccc4)cc3)cc2[nH]1 |
| 118 µM | Nc1cccc(Nc2ccnc(Nc3cccc(S(=O)(=O)N4CCCC4)c3)n2)c1 |
| 61.9 µM | Cc1ccc(C(=O)Nc2ccc(S(=O)(=O)Nc3ccccc3)cc2)cc1NC(=O)Cc1cc(=O)[nH]c(=O)[nH]1 |
| 22.1 µM | Cc1cc(C(=O)Nc2ccc(S(=O)(=O)Nc3ccccc3)cc2)nc(NCCN)n1 |
| 38 µM | CC(=O)NCc1cccc(Nc2ccnc(Nc3cccc(S(=O)(=O)N4CCCC4)c3)n2)c1 |
| 122 µM | Cc1cc(C(=O)Nc2ccc(OCc3ccccc3)cc2)nc(NCCN)n1 |
| 247 µM | O=C(Cc1ccccc1[N+](=O)[O-])Nc1cccc(C(=O)Nc2ccc(CN3CCCC3)cc2)c1 |
| 105 µM | Cc1cnc(Nc2cccc(S(=O)(=O)N3CCCC3)c2)nc1Nc1cccc(N)c1 |
| 21.7 µM | CN(c1ccccc1)S(=O)(=O)c1ccc(NC(=O)c2ccc3c(c2)CCCS3)cc1 |
| 24 µM | O=C(Nc1cccc(CN2CCCCC2)c1)c1ccc2c(c1)CCCS2 |
| 24.1 µM | CC(=O)N1CCN(S(=O)(=O)c2ccc(NC(=O)c3ccc4c(c3)CCCS4)cc2)CC1 |
| 37.5 µM | CN(Cc1cccc(NC(=O)c2ccc3c(c2)CCCS3)c1)c1ccccc1 |
| 12.4 µM | O=C(Nc1cccc(OCc2ccccc2)c1)c1ccc2oc(=O)[nH]c2c1 |
| 25.2 µM | CCCCN1C(=O)CSc2ccc(C(=O)Nc3ccc(S(=O)(=O)N4CCCCC4)cc3)cc21 |
| 367 µM | O=C(Nc1ccc(S(=O)(=O)Nc2ccccc2)cc1)c1ccc2nncn2c1 |
| 12 µM | c1ccc(OCc2ccc(CNc3ccc4cncnc4c3)cc2)cc1 |
| 4.94 µM | CN1C(=O)COc2ccc(C(=O)Nc3ccc(S(=O)(=O)N4CCCCCC4)cc3)cc21 |
| 38.8 µM | CN(Cc1cccc(NC(=O)c2ccc3snnc3c2)c1)c1ccccc1 |
| 82.1 µM | CN1C(=O)CSc2ccc(C(=O)Nc3ccc(S(C)(=O)=O)cc3)cc21 |

| Kd | SMILES |
| --- | --- |
| 14.2 µM | CN(c1cccc(Cl)c1)S(=O)(=O)c1ccc(NC(=O)c2ccc3c(c2)CCCS3)cc1 |
| 106 µM | CN(c1ccccc1)S(=O)(=O)c1ccc(NC(=O)c2ccc(/C=C/C(=O)O)cc2)cc1 |
| 6.37 µM | CC(C)N1C(=O)CSc2ccc(C(=O)Nc3ccc(S(=O)(=O)N4CCCCC4)cc3)cc21 |
| 130 µM | CCN(c1ccccc1)S(=O)(=O)c1ccc(NC(=O)c2ccc3c(c2)CCCS3)cc1 |
| 20.7 µM | CN(Cc1ccccc1)c1ccc(CNc2ccc3cncnc3c2)cc1 |
| 5.28 µM | O=C1COc2ccc(C(=O)Nc3ccc(CNc4ccccc4)cc3)cc2N1 |
| 46.1 µM | O=C(Nc1ccc(CNc2ccccc2)cc1)c1ccc2nncn2c1 |
| 8.28 µM | c1ncc2ccc(NCc3ccc(OCC4CCCCC4)cc3)cc2n1 |
| 11.1 µM | Cc1ccccc1COc1ccc(CNc2ccc3cncnc3c2)cc1 |
| 3.28 µM | Clc1cccc(COc2ccc(CNc3ccc4cncnc4c3)cc2)c1 |
| 7.88 µM | Clc1ccccc1COc1ccc(CNc2ccc3cncnc3c2)cc1 |
| 1.74 µM | O=C1CSc2ccc(C(=O)Nc3ccc(CNc4ccccc4)cc3)cc2N1 |
| 16.9 µM | CC(=O)N1CCN(S(=O)(=O)c2ccc(NC(=O)c3ccc4snnc4c3)cc2)CC1 |
| 141 µM | CN1C(=O)CSc2ccc(C(=O)Nc3ccc(S(C)(=O)=O)c(Cl)c3)cc21 |
| 10.3 µM | Cc1ccccc1N(C)S(=O)(=O)c1ccc(NC(=O)c2ccc3c(c2)CCCS3)cc1 |
| 4.55 µM | Cc1cccc(N(C)S(=O)(=O)c2ccc(NC(=O)c3ccc4c(c3)CCCS4)cc2)c1 |
| 10.8 µM | CN(c1ccc(Cl)cc1)S(=O)(=O)c1ccc(NC(=O)c2ccc3c(c2)CCCS3)cc1 |
| 2.39 µM | CN(c1ccccc1Cl)S(=O)(=O)c1ccc(NC(=O)c2ccc3c(c2)CCCS3)cc1 |
| 2.9 µM | CN(Cc1ccc(NC(=O)c2ccc3nn[nH]c3c2)cc1)c1ccccc1 |
| 11.5 µM | CN(Cc1ccc(NC(=O)c2ccc3c(c2)CCCS3)cc1)c1ccccc1 |
| 8.1 µM | CN(Cc1ccc(NC(=O)c2ccc3c(c2)N(C)C(=O)CS3)cc1)c1ccccc1 |
| 24.8 µM | CN(Cc1ccc(NC(=O)c2ccc3c(c2)NC(=O)CS3)cc1)c1ccccc1 |
| 7.91 µM | O=C(Nc1ccc(CNc2ccccc2)cc1)c1ccc2oc(=O)[nH]c2c1 |

Second part, the molecule before the results:

| SMILES | Kd |
| --- | --- |
| CC1Sc2ccc(C(=O)Nc3cccc(CNc4cccc(OS(=O)(=O)F)c4)c3)cc2NC1=O (stereo not shown) | 11.2 µM |
| CC1Sc2ccc(C(=O)Nc3cccc(OCc4ccc(OS(=O)(=O)F)cc4)c3)cc2NC1=O (stereo not shown) | 19.1 µM |
| CC1Sc2ccc(C(=O)Nc3cccc(OCc4cccc(OS(=O)(=O)F)c4)c3)cc2NC1=O (stereo not shown) | 16.9 µM |
| CC(=O)NCc1cccc(Nc2nc(Nc3cccc(S(=O)(=O)N4CCCC4)c3)ncc2C)c1 | 163 µM |
| CC1Sc2ccc(C(=O)Nc3cccc(S(=O)(=O)F)c3)cc2NC1=O (stereo not shown) | 35.5 µM |
| CC1Sc2ccc(C(=O)Nc3ccc(OCc4cccc(S(=O)(=O)F)c4)cc3)cc2NC1=O (stereo not shown) | 7.17 µM |
| Nc1ccccc1CC(=O)Nc1cccc(C(=O)Nc2ccc(CN3CCCC3)cc2)c1 | 15.4 µM |
| CC(=O)N1CCN(S(=O)(=O)c2cccc(NC(=O)c3ccc4c(c3)CCCS4)c2)CC1 | 15.4 µM |
| O=C(Nc1ccc(S(=O)(=O)N2CCCCC2)cc1)c1ccc2c(c1)N(Cc1ccccc1)C(=O)CS2 | 15.7 µM |
| CN1C(=O)CSc2ccc(C(=O)Nc3ccc(CN4CCCCC4)cc3)cc21 | 129 µM |
| CN(c1ccccc1)S(=O)(=O)c1ccc(NC(=O)c2ccc(SCC(=O)O)cc2)cc1 | 11 µM |
| O=C(Nc1cccc(CNc2ccccc2)c1)c1ccc2oc(=O)[nH]c2c1 | 18.2 µM |
| CN(Cc1cccc(NC(=O)c2ccc3oc(=O)[nH]c3c2)c1)c1ccccc1 | 13.6 µM |
| CCN1C(=O)CSc2ccc(C(=O)Nc3ccc(S(=O)(=O)N4CCCCC4)cc3)cc21 | 7.52 µM |
| CN(c1ccccc1)S(=O)(=O)c1ccc(NC(=O)c2ccc3c(c2)CCCS3)cc1Cl | 10.2 µM |
| CN(c1ccccc1)S(=O)(=O)c1ccc(NC(=O)c2ccc3c(c2)CCCS3)cc1C(F)(F)F | 5.62 µM |
| CN(Cc1ccccc1)c1ccc(CNc2ccc3cccnc3c2)cc1 | 9.27 µM |
| c1ncc2ccc(NCc3ccc(OCC4CCOCC4)cc3)cc2n1 | 24.4 µM |
| c1ccc(CNc2ccc(CNc3ccc4cncnc4c3)cc2)cc1 | 30.6 µM |
| Cc1cccc(COc2ccc(CNc3ccc4cncnc4c3)cc2)c1 | 7.63 µM |
| Cc1cc(OCc2ccccc2)ccc1CNc1ccc2cncnc2c1 | 9.24 µM |
| Clc1cc(CNc2ccc3cncnc3c2)ccc1OCc1ccccc1 | 4.01 µM |
| FC(F)(F)c1cc(CNc2ccc3cncnc3c2)ccc1OCc1ccccc1 | 4.89 µM |
| Cc1ccc(N(C)S(=O)(=O)c2ccc(NC(=O)c3ccc4c(c3)CCCS4)cc2)cc1 | 2.73 µM |

system: Jeko-1 (SOX11+); assay: Cell viability assay (CellTiter-Blue resazurin reduction); format: cell-based; conditions: Homo sapiens, JeKo-1, 72 h, JeKo-1 cells, 0-40 μM
Experimental: Cell viability was determined by a fluorometric resazurin reduction method (CellTiter-Blue; Promega, Madison, Wis.) following the manufacturer's instructions. […] Cells were incubated for 72 hours. After incubation, 20 μl CellTiter-Blue Cell was added to each well and incubated for another 2 hours. […] The number of viable cells in each treated well was calculated, based on the linear least squares regression of the standard curve (OD vs. cell concentration). The viability of cells treated with compounds was normalized to the viability of cells treated with 0.2% Dimethyl sulfoxide (DMSO). Cell counts were confirmed with Trypan Blue Exclusion Assay on the Countess automated cell counter (Invitrogen) according to the manufacturer's specifications. The average and mean standard deviation were calculated from three separate experiments. IC50 values were calculated using the GraphPad Prism (version 4.00) based on a sigmoidal dose-response equation.

| SMILES | IC50 |
| --- | --- |
| O=C(Nc1ccc(S(=O)(=O)Nc2ccccc2)cc1)c1ccc2nn[nH]c2c1 | 12 µM |
| CC1Sc2ccc(C(=O)Nc3ccc(S(=O)(=O)Nc4ccccc4F)cc3)cc2NC1=O (stereo not shown) | 15 µM |
| CC1Sc2ccc(C(=O)Nc3ccc(S(=O)(=O)Nc4ccccc4)cc3C(F)(F)F)cc2NC1=O (stereo not shown) | 5 µM |
| Cc1cc(S(=O)(=O)Nc2ccccc2)ccc1NC(=O)c1ccc2c(c1)NC(=O)C(C)S2 (stereo not shown) | 20 µM |
| CC1Sc2ccc(C(=O)Nc3cccc(S(=O)(=O)Nc4cccc(C(F)(F)F)c4)c3)cc2NC1=O (stereo not shown) | 10 µM |
| C[C@H]1Sc2ccc(C(=O)Nc3ccc(S(=O)(=O)Nc4ccccc4)cc3)cc2NC1=O | 12.5 µM |
| CC1Sc2ccc(C(=O)Nc3ccc(S(=O)(=O)Nc4ccccc4)cc3)cc2NC1=O (stereo not shown) [drawing 599] | 12.5 µM |

same assay, conditions: Homo sapiens, JeKo-1, 72 h, JeKo-1 cells, 20 μM compound, normalized to 0.2% DMSO

| SMILES | viability at 20 µM |
| --- | --- |
| O=C(Nc1ccc(S(=O)(=O)Nc2ccccc2)cc1)c1ccc2nn[nH]c2c1 | 5.75% |
| CC1Sc2ccc(C(=O)Nc3ccc(S(=O)(=O)Nc4ccccc4F)cc3)cc2NC1=O (stereo not shown) | 21.2% |
| CC1Sc2ccc(C(=O)Nc3ccc(S(=O)(=O)Nc4ccccc4)cc3C(F)(F)F)cc2NC1=O (stereo not shown) | 1.38% |
| Cc1cc(S(=O)(=O)Nc2ccccc2)ccc1NC(=O)c1ccc2c(c1)NC(=O)C(C)S2 (stereo not shown) | 51.1% |
| CC1Sc2ccc(C(=O)Nc3cccc(S(=O)(=O)Nc4cccc(C(F)(F)F)c4)c3)cc2NC1=O (stereo not shown) | 16.8% |
| CC1Sc2ccc(C(=O)Nc3ccc(OCc4ccccc4C(F)(F)F)cc3)cc2NC1=O (stereo not shown) | 106% |
| CC1Sc2ccc(C(=O)Nc3ccc(OCc4ccccc4)cc3)cc2NC1=O (stereo not shown) | 104% |
| CC1Sc2ccc(C(=O)Nc3cccc(OCc4ccccc4C(F)(F)F)c3)cc2NC1=O (stereo not shown) | 87.1% |

same assay, conditions: JeKo-1 cells, 20 μM compound, 72 hours, normalized to 0.2% DMSO; 20 µM

| SMILES | Jeko-1 Viability at 20 μM (%) |
| --- | --- |
| O=C1CSc2ccc(C(=O)Nc3ccc(S(=O)(=O)Nc4ccccc4)cc3)cc2N1 [drawing 503] | 2.73% |
| O=C1CSc2ccc(C(=O)Nc3ccc(S(=O)(=O)Nc4ccccc4)cc3)cc2N1 [drawing 513] | 79.21% |
| CC1Sc2ccc(C(=O)Nc3ccc(S(=O)(=O)Nc4ccccc4)cc3)cc2NC1=O (stereo not shown) [drawing 599] | 6.36% |

same assay, conditions: JeKo-1 cells, 72 hours, 0-40 μM

| SMILES | IC50 |
| --- | --- |
| O=C1CSc2ccc(C(=O)Nc3ccc(S(=O)(=O)Nc4ccccc4)cc3)cc2N1 [drawing 503] | 7.5 µM |
| O=C1CSc2ccc(C(=O)Nc3ccc(S(=O)(=O)Nc4ccccc4)cc3)cc2N1 [drawing 513] | > 20 µM |
